Reference: patent publication US11896589B2, “Diazinyl amino acridines and medical uses thereof” (MyCural Therapeutics AB, priority 2018, dated 2024)

Experiments:
[1] = target: T1, MYC:MAX heterodimer (MYCbHLHZip, labelled MAXbHLHZip) (Homo sapiens, UniProt P01106); experiment: Assay 1A MYC:MAX heterodimer MST assay; type: binding; conditions: thermophoresis shift of 1 μM labelled MAXbHLHZip with 1 μM MYCbHLHZip
T1 construct: MYC:MAX heterodimer formation assay based on recombinant proteins
Protocol: FIG. 1: A) Microscale thermophoresis (MST) of fluorescently labeled MAX in a MYC:MAX heterodimer formation assay based on recombinant proteins. MST of labeled MAXbHLHZip after titration of Example 1 pre-incubated with 1 μM MYCbHLHZip, or with 1 μM MAXbHLHZip. Fluorescence intensity of labeled MAXbHLHZip relative DMSO was plotted against Example 1 concentration. B) Surface plasmon resonance (SPR) of MYC:MAX heterodimer formation assay. MAXbHLHZip was immobilized by an amino coupling procedure to a CM5 sensor chip. MYCbHLHZip pre-incubated with or without compound (as indicated) was injected over MAX for 180 seconds, allowed to dissociate for 240 seconds and regenerated. […] C) MYC binding response units (RU) plotted against Example 1 concentration from which an IC50 of Example 1 inhibition of MYC:MAX heterodimer formation is determined, summary of four experiments. […]
MST measures the movement of fluorescent labelled molecules in a microscopic temperature gradient. Changes in charge, size or of the hydration shell of the fluorescent molecule affects its migration in the temperature gradient, which can be detected by the fluorescence of the molecule (See Seidel et al., Microscale thermophoresis quantifies biomolecular interactions under previously challenging conditions, METHODS (2013)). […] Capillaries were scanned to measure initial fluorescence of compound. […]

[2] = test system: MYC-ER driven transcription of ODC1, RSG16, CR2 in U2OS-MYC-ER cells; experiment: Assay 4 MYC target gene expression (RT-qPCR); type: cell-based
Protocol: FIG. 5: A) Inhibition of MYC transactivation of target genes (A) ODC1, (B) RSG16, and (C) CR2 as determined by RT-qPCR analysis, based on three biological experiments with three technical repeats each. U2OS-MYC-ER cells were treated with or without 100 nM 4-hydroxy-tamoxifen (HOT) for 4 hours, after which DMSO or Example 1 was added for 24 hours before total RNA was extraction. Fold changes in mRNA expression are presented relative to DMSO in non-HOT-treated cells after normalization to GAPDH, used as reference gene. Assay 4: Gene Expression To investigate the effect of the compounds on MYC-driven transcription, we utilized U2OS cells containing a MYC-estrogen receptor (MYC-ER) fusion protein, the activity of which is regulated by the ligand 4-hydroxytamoxifen (HOT). RT-qPCR was performed essentially as described in Bahram, F. et al. Interferon-gamma-induced p27KIP1 binds to and targets MYC for proteasome-mediated degradation. Oncotarget 7, 2837-2854, doi:10.18632/oncotarget.6693 (2016).

[3] = test system: MYCN-amplified neuroblastoma cells (SK-N-DZ, Kelly, IMR-32); experiment: Assay 5A neuroblastoma cell growth (WST-1), MYCN-amplified; type: cell-based; conditions: Homo sapiens, second run
Protocol: FIG. 6: A-B) Neuroblastoma cell lines with (SK-N-DZ, Kelly and IMR-32) or without (SK-N-F1, SK-N-RA and SK-N-AS) MYCN-amplification were exposed to different concentrations of Example 1, Example 2 and control compound, respectively, for 48 hours. Cell growth and viability was estimated by measuring metabolic activity. C) Growth of TGR-1 (wt), HO15.19 (MYC knockout) and HOmyc3 (MYC reconstituted HO15.19) Rat1 fibroblasts, as measured by the WST-1 assay after treatment with Example 1. Data are shown as mean±standard deviation of 3-5 biological experiments, each with 3 technical repeats.
Assay 5A: Neuroblastoma Cell Growth
Neuroblastoma cell lines with (SK-N-DZ, Kelly and IMR-32) or without (SK-N-F1, SK-N-RA and SK-N-AS) MYCN-amplification were exposed to different concentrations of example compounds for 48 hours. Cell growth and viability was estimated by measuring metabolic activity by incubating cells in triplicates with WST-1 (Roche) in medium at 37° C. and 5% CO2 for 2 hours after which absorbance was measured with an Omega Fluostar (BMG Labtech) in a 96 well plate format.

T1 sequence (P01106 368-449 limits assumed, one chain of several): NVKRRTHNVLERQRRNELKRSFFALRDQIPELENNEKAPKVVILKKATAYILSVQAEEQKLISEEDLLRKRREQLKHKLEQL

Kd [1]: 4.3 µM
GI50 [3]: 2.5 µM
SMILES: CCOc1ccc2nc3cc(/N=N/c4ccc(N)nc4N)ccc3c(N)c2c1 [Example 1, 3-((9-amino-7-ethoxyacridin-3-yl)diazenyl)pyridine-2,6-diamine sulphate hydrate]
inhibition of gene expression, CR2 gene ([2]; 10 μM): 100%
inhibition of gene expression, ODC1 gene ([2]; 10 μM): 100%
inhibition of gene expression, RSG16 gene ([2]; 10 μM): 68%
HOT-induced expression of all three MYC target genes ([2]; 24 hours): significantly reduced
